Measured values published in article PMC5218480 (PLoS ONE, 2017).

Test system: MV-4-11 cells
Experiment: Gene expression microarray analysis (Affymetrix PrimeView) and GSEA
Format: cell-based, human
Set-up: RFU PODN (11730768_x_at) / Fold change /veh PODN (11730768_x_at) / RFU LINC00158 (11744669_a_at) / Fold change /veh LINC00158 (11744669_a_at) / RFU DUSP10 (11751237_a_at) / Fold change /veh DUSP10 (11751237_a_at) / RFU ID3 (11757404_x_at) / Fold change /veh ID3 (11757404_x_at) / RFU PLEKHG5 (11737974_s_at) / Fold change /veh PLEKHG5 (11737974_s_at) / RFU LRRC4B (11730491_at) / Fold change /veh LRRC4B (11730491_at) / RFU GIMAP4 (11747438_a_at) / Fold change /veh GIMAP4 (11747438_a_at) / RFU KRT8 (11758183_x_at) / Fold change /veh KRT8 (11758183_x_at) / RFU CNN1 (11734310_a_at) / Fold change /veh CNN1 (11734310_a_at) / RFU VPS37D (11726825_at) / Fold change /veh VPS37D (11726825_at) / RFU C10orf10 (11716522_x_at) / Fold change /veh C10orf10 (11716522_x_at) / RFU KIR2DL2 /// KIR2DL4 /// KIR2DL5A /// KIR2DL5B /// KIR2DS1 /// KIR2DS2 /// KIR2DS3 /// KIR2DS4 /// KIR3DL3 /// KIR3DL3 /// KIR3DS1 (11738374_at) / Fold change /veh KIR2DL2 /// KIR2DL4 /// KIR2DL5A /// KIR2DL5B /// KIR2DS1 /// KIR2DS2 /// KIR2DS3 /// KIR2DS4 /// KIR3DL3 /// KIR3DL3 /// KIR3DS1 (11738374_at) / RFU C1QL1 (11718748_at) / Fold change /veh C1QL1 (11718748_at) / RFU TMPRSS4 (11747572_a_at) / Fold change /veh TMPRSS4 (11747572_a_at) / RFU HAMP (11756126_x_at) / Fold change /veh HAMP (11756126_x_at) / RFU RNFT2 (11725882_a_at) / Fold change /veh RNFT2 (11725882_a_at) / RFU NR4A2 (11747474_a_at) / Fold change /veh NR4A2 (11747474_a_at) / RFU ABCC12 (11746883_a_at) / Fold change /veh ABCC12 (11746883_a_at) / RFU TMEM136 (11760407_x_at) / Fold change /veh TMEM136 (11760407_x_at) / RFU CLDN22 /// WWC2 (11732394_at) / Fold change /veh CLDN22 /// WWC2 (11732394_at) / RFU HLA-DPB1 (11760878_x_at) / Fold change /veh HLA-DPB1 (11760878_x_at) / RFU SPINT1 (11716480_a_at) / Fold change /veh SPINT1 (11716480_a_at) / RFU GAP43 (11754022_s_at) / Fold change /veh GAP43 (11754022_s_at) / RFU A4GNT (11735810_at) / Fold change /veh A4GNT (11735810_at) / RFU PRB3 (11715151_x_at) / Fold change /veh PRB3 (11715151_x_at) / RFU TUBB4B (11761932_at) / Fold change /veh TUBB4B (11761932_at) / RFU CAPN14 (11732068_a_at) / Fold change /veh CAPN14 (11732068_a_at) / RFU TMCC2 (11721928_a_at) / Fold change /veh TMCC2 (11721928_a_at) / RFU IRGQ (11745062_a_at) / Fold change /veh IRGQ (11745062_a_at) / RFU FAM174B (11720279_a_at) / Fold change /veh FAM174B (11720279_a_at) / RFU TMPRSS4 (11748680_a_at) / Fold change /veh TMPRSS4 (11748680_a_at) / RFU FAM212B (11763350_a_at) / Fold change /veh FAM212B (11763350_a_at) / RFU PLEKHG5 (11743358_a_at) / Fold change /veh PLEKHG5 (11743358_a_at) / RFU ZSCAN30 (11745921_a_at) / Fold change /veh ZSCAN30 (11745921_a_at) / RFU CMKLR1 (11741424_a_at) / Fold change /veh CMKLR1 (11741424_a_at) / RFU LOC101060620 /// MAPK8IP1 (11723275_at) / Fold change /veh LOC101060620 /// MAPK8IP1 (11723275_at) / RFU SPTSSB (11747773_x_at) / Fold change /veh SPTSSB (11747773_x_at) / RFU PRSS12 (11739890_at) / Fold change /veh PRSS12 (11739890_at) / RFU BIN1 (11741810_x_at) / Fold change /veh BIN1 (11741810_x_at) / RFU WNT11 (11732464_a_at) / Fold change /veh WNT11 (11732464_a_at) / RFU C10orf10 (11716521_a_at) / Fold change /veh C10orf10 (11716521_a_at) / RFU C5orf56 (11738089_at) / Fold change /veh C5orf56 (11738089_at) / RFU CYB561 (11721691_x_at) / Fold change /veh CYB561 (11721691_x_at) / RFU ANKRD19P (11752326_a_at) / Fold change /veh ANKRD19P (11752326_a_at) / RFU OR2T12 /// OR2T33 /// OR2T8 (11738714_s_at) / Fold change /veh OR2T12 /// OR2T33 /// OR2T8 (11738714_s_at) / RFU VCAN (11748164_a_at) / Fold change /veh VCAN (11748164_a_at) / RFU JSRP1 (11732532_at) / Fold change /veh JSRP1 (11732532_at) / RFU KRTAP10-11 (11738290_x_at) / Fold change /veh KRTAP10-11 (11738290_x_at) / RFU MYO3A (11730013_a_at) / Fold change /veh MYO3A (11730013_a_at) / RFU EBF3 (11725865_a_at) / Fold change /veh EBF3 (11725865_a_at) / RFU CAMK2N1 (11719241_x_at) / Fold change /veh CAMK2N1 (11719241_x_at) / RFU C5orf56 (11738088_a_at) / Fold change /veh C5orf56 (11738088_a_at) / RFU OLFML3 (11715873_a_at) / Fold change /veh OLFML3 (11715873_a_at) / RFU LOC100653217 /// NTM (11731650_a_at) / Fold change /veh LOC100653217 /// NTM (11731650_a_at) / RFU MAPK11 (11762145_a_at) / Fold change /veh MAPK11 (11762145_a_at) / RFU FIZ1 (11724087_x_at) / Fold change /veh FIZ1 (11724087_x_at) / RFU OASL (11726364_x_at) / Fold change /veh OASL (11726364_x_at) / RFU SOX15 (11748057_x_at) / Fold change /veh SOX15 (11748057_x_at) / RFU CD79A (11719716_a_at) / Fold change /veh CD79A (11719716_a_at) / RFU HIST1H1D (11736915_at) / Fold change /veh HIST1H1D (11736915_at) / RFU CASKIN2 (11723855_a_at) / Fold change /veh CASKIN2 (11723855_a_at) / RFU LOC730098 (11760151_x_at) / Fold change /veh LOC730098 (11760151_x_at) / RFU OR4N2 (11742367_at) / Fold change /veh OR4N2 (11742367_at) / RFU PRRT2 (11749266_a_at) / Fold change /veh PRRT2 (11749266_a_at) / RFU SNX32 (11753110_a_at) / Fold change /veh SNX32 (11753110_a_at) / RFU CDHR5 (11726645_a_at) / Fold change /veh CDHR5 (11726645_a_at) / RFU RCAN1 (11760418_a_at) / Fold change /veh RCAN1 (11760418_a_at) / RFU FAM167A (11723789_a_at) / Fold change /veh FAM167A (11723789_a_at) / RFU FAM26E (11764081_at) / Fold change /veh FAM26E (11764081_at) / RFU ISYNA1 (11749810_s_at) / Fold change /veh ISYNA1 (11749810_s_at) / RFU ACY1 (11761880_at) / Fold change /veh ACY1 (11761880_at) / RFU 11764098_at / Fold change /veh 11764098_at / RFU SAMD14 (11745864_x_at) / Fold change /veh SAMD14 (11745864_x_at) / RFU NPB (11741838_a_at) / Fold change /veh NPB (11741838_a_at) / RFU TMPRSS6 (11731388_a_at) / Fold change /veh TMPRSS6 (11731388_a_at) / RFU KRTAP10-2 (11738614_at) / Fold change /veh KRTAP10-2 (11738614_at) / RFU ARHGAP8 /// PRR5-ARHGAP8 (11727945_x_at) / Fold change /veh ARHGAP8 /// PRR5-ARHGAP8 (11727945_x_at) / RFU KRTAP5-7 /// NADSYN1 (11734609_at) / Fold change /veh KRTAP5-7 /// NADSYN1 (11734609_at) / RFU RASL12 (11751679_a_at) / Fold change /veh RASL12 (11751679_a_at) / RFU CDKN2B (11736163_a_at) / Fold change /veh CDKN2B (11736163_a_at) / RFU PRF1 (11729649_at) / Fold change /veh PRF1 (11729649_at) / RFU, ZNF638 /// ZNF638-IT1 / Fold change vs veh, ZNF638 /// ZNF638-IT1 / RFU, PANK3 / Fold change vs veh, PANK3 / RFU, SH3YL1 / Fold change vs veh, SH3YL1 / RFU, ZEB2 / Fold change vs veh, ZEB2 / RFU, NRIP1 / Fold change vs veh, NRIP1 / RFU, PTTG1IP / Fold change vs veh, PTTG1IP / RFU, CAPN2 / Fold change vs veh, CAPN2 / RFU, MED14 / Fold change vs veh, MED14 / RFU, SNORA58 / Fold change vs veh, SNORA58 / RFU, C1orf63 / Fold change vs veh, C1orf63 / RFU, LRRFIP1 / Fold change vs veh, LRRFIP1 / RFU, NDUFAF7 / Fold change vs veh, NDUFAF7 / RFU, SLC12A2 / Fold change vs veh, SLC12A2 / RFU, IBTK / Fold change vs veh, IBTK / RFU, ESF1 / Fold change vs veh, ESF1 / Fold change vs veh, TMEM50B / RFU, TAOK1 / Fold change vs veh, TAOK1 / RFU, ACBD3 / Fold change vs veh, ACBD3 / RFU, TMA16 / Fold change vs veh, TMA16 / RFU, RWDD3 / Fold change vs veh, RWDD3 / RFU, BCAT1 / Fold change vs veh, BCAT1 / RFU, EDEM3 / Fold change vs veh, EDEM3 / RFU, TMEM33 / Fold change vs veh, TMEM33 / RFU, WDR75 / Fold change vs veh, WDR75 / RFU, AHCTF1 / Fold change vs veh, AHCTF1 / RFU, TFRC / Fold change vs veh, TFRC / RFU, ZDHHC17 / Fold change vs veh, ZDHHC17 / RFU, NOM1 / Fold change vs veh, NOM1 / RFU, ARL8B / Fold change vs veh, ARL8B / RFU, ZBTB11 / Fold change vs veh, ZBTB11 / RFU, TAMM41 / Fold change vs veh, TAMM41 / RFU, KIAA1704 /// LOC100996395 / Fold change vs veh, KIAA1704 /// LOC100996395 / RFU, ING1 / Fold change vs veh, ING1 / RFU, TRMT61B / Fold change vs veh, TRMT61B / RFU, FUBP3 / Fold change vs veh, FUBP3 / RFU, TP53 / Fold change vs veh, TP53 / RFU, TNKS2 / Fold change vs veh, TNKS2 / RFU, ZFP14 / Fold change vs veh, ZFP14 / RFU, ACTR2 / Fold change vs veh, ACTR2 / RFU, PPP3R1 / Fold change vs veh, PPP3R1 / RFU, PIK3R1 / Fold change vs veh, PIK3R1 / RFU, HNRNPA1 / Fold change vs veh, HNRNPA1 / RFU, RNF170 / Fold change vs veh, RNF170 / RFU, ZNF28 / Fold change vs veh, ZNF28 / RFU, RNGTT / Fold change vs veh, RNGTT / RFU, OGT / Fold change vs veh, OGT / RFU, BRD1 / Fold change vs veh, BRD1 / RFU, MARS / Fold change vs veh, MARS / RFU, ZNF655 / Fold change vs veh, ZNF655 / RFU, FAHD1 / Fold change vs veh, FAHD1 / RFU, BDP1 / Fold change vs veh, BDP1 / RFU, LRRCC1 / Fold change vs veh, LRRCC1 / RFU, ARID1A / Fold change vs veh, ARID1A / RFU, ZNF146 / Fold change vs veh, ZNF146 / RFU, ZNF330 / Fold change vs veh, ZNF330 / RFU, GPN3 / Fold change vs veh, GPN3 / RFU, C9orf123 / Fold change vs veh, C9orf123 / RFU, N4BP2L2 / Fold change vs veh, N4BP2L2 / RFU, ARFIP1 / Fold change vs veh, ARFIP1 / RFU, FAM179B / Fold change vs veh, FAM179B / RFU, BCL10 / Fold change vs veh, BCL10 / RFU, UHRF1BP1L / Fold change vs veh, UHRF1BP1L / RFU, BET1 / Fold change vs veh, BET1 / RFU, CNOT2 / Fold change vs veh, CNOT2 / RFU, ZNF268 / Fold change vs veh, ZNF268 / Fold change vs veh, ZNF507 / RFU, DGCR2 / Fold change vs veh, DGCR2 / RFU, WDSUB1 / Fold change vs veh, WDSUB1 / Fold change vs veh, HSP90B1 /// MIR3652 / RFU, ADSS / Fold change vs veh, ADSS / RFU, GK / Fold change vs veh, GK / RFU, ZNF148 / Fold change vs veh, ZNF148 / RFU, TAF9 / Fold change vs veh, TAF9 / RFU, SLC1A5 / Fold change vs veh, SLC1A5 / RFU, SLMO2 / Fold change vs veh, SLMO2 / RFU, ABCC4 / Fold change vs veh, ABCC4 / RFU, LOC101060439 /// RAP1B / Fold change vs veh, LOC101060439 /// RAP1B / RFU, RFX7 / Fold change vs veh, RFX7 / RFU, GTPBP10 / Fold change vs veh, GTPBP10 / RFU, CNEP1R1 / Fold change vs veh, CNEP1R1 / RFU, BIVM-ERCC5 /// ERCC5 / Fold change vs veh, BIVM-ERCC5 /// ERCC5 / RFU, ILF3 / Fold change vs veh, ILF3 / RFU 11762660_at / Fold change /veh 11762660_at / RFU VCAN (11757783_s_at) / Fold change /veh VCAN (11757783_s_at) / RFU DDX43 (11728927_at) / Fold change /veh DDX43 (11728927_at) / RFU KRT8 (11758188_x_at) / Fold change /veh KRT8 (11758188_x_at) / RFU NKD1 (11759106_at) / Fold change /veh NKD1 (11759106_at) / RFU SRD5A1 (11742802_a_at) / Fold change /veh SRD5A1 (11742802_a_at) / RFU TPSAB1 /// TPSB2 (11721975_s_at) / Fold change /veh TPSAB1 /// TPSB2 (11721975_s_at) / RFU GSTM3 (11746129_a_at) / Fold change /veh GSTM3 (11746129_a_at) / RFU IL23R (11737362_x_at) / Fold change /veh IL23R (11737362_x_at) / RFU TMEM51 (11727254_a_at) / Fold change /veh TMEM51 (11727254_a_at) / RFU PIWIL2 (11732686_x_at) / Fold change /veh PIWIL2 (11732686_x_at) / RFU ORM1 (11744905_x_at) / Fold change /veh ORM1 (11744905_x_at) / RFU CCDC152 (11743942_at) / Fold change /veh CCDC152 (11743942_at) / RFU ECM1 (11717891_a_at) / Fold change /veh ECM1 (11717891_a_at) / RFU IL23R (11748794_a_at) / Fold change /veh IL23R (11748794_a_at) / RFU TNFAIP8L3 (11732012_x_at) / Fold change /veh TNFAIP8L3 (11732012_x_at) / RFU MBOAT4 (11741988_at) / Fold change /veh MBOAT4 (11741988_at) / RFU 11764193_at / Fold change /veh 11764193_at / RFU TMEM53 (11763286_at) / Fold change /veh TMEM53 (11763286_at) / RFU MAGEB2 (11727129_at) / Fold change /veh MAGEB2 (11727129_at) / RFU TMEM200A (11744735_a_at) / Fold change /veh TMEM200A (11744735_a_at) / RFU CCDC152 (11751479_a_at) / Fold change /veh CCDC152 (11751479_a_at) / RFU FAM211A (11726209_a_at) / Fold change /veh FAM211A (11726209_a_at) / RFU RGS16 (11746705_a_at) / Fold change /veh RGS16 (11746705_a_at) / RFU VCAN (11755009_s_at) / Fold change /veh VCAN (11755009_s_at) / RFU RHOB (11743442_s_at) / Fold change /veh RHOB (11743442_s_at) / RFU RGS16 (11720943_a_at) / Fold change /veh RGS16 (11720943_a_at) / RFU RGS16 (11720944_at) / Fold change /veh RGS16 (11720944_at) / RFU, VPS4B / Fold change vs veh, VPS4B / RFU, CREB1 / Fold change vs veh, CREB1 / RFU, DNAJC13 / Fold change vs veh, DNAJC13 / RFU, GNAQ / Fold change vs veh, GNAQ / RFU, CDK5R1 / Fold change vs veh, CDK5R1 / RFU, ZRANB3 / Fold change vs veh, ZRANB3 / RFU, CUL4A / Fold change vs veh, CUL4A / RFU, CCNY / Fold change vs veh, CCNY / RFU, UFL1 / Fold change vs veh, UFL1 / RFU, COG3 / Fold change vs veh, COG3 / RFU, DIAPH2 / Fold change vs veh, DIAPH2 / RFU, SKA2 / Fold change vs veh, SKA2 / RFU, AFF3 / Fold change vs veh, AFF3 / RFU, LMF1 / Fold change vs veh, LMF1 / RFU, IPO11 / Fold change vs veh, IPO11 / RFU, DFFB / Fold change vs veh, DFFB / RFU, FOXP1 / Fold change vs veh, FOXP1 / RFU, CARD8 / Fold change vs veh, CARD8 / RFU, STRN3 / Fold change vs veh, STRN3 / RFU, ADK / Fold change vs veh, ADK / RFU, RASSF2 / Fold change vs veh, RASSF2 / RFU, WIPF1 / Fold change vs veh, WIPF1 / RFU, LARP1B / Fold change vs veh, LARP1B / RFU, RASA1 / Fold change vs veh, RASA1 / RFU, RB1 / Fold change vs veh, RB1 / RFU, PPFIA1 / Fold change vs veh, PPFIA1 / RFU, MAT2A / Fold change vs veh, MAT2A / RFU, CCT5 / Fold change vs veh, CCT5 / RFU, WDR92 / Fold change vs veh, WDR92 / RFU, CUX1 / Fold change vs veh, CUX1 / RFU, TTC7A / Fold change vs veh, TTC7A / RFU, TMEM135 / Fold change vs veh, TMEM135 / RFU, DEPTOR / Fold change vs veh, DEPTOR / RFU, CPM / Fold change vs veh, CPM / RFU, DNAJB6 / Fold change vs veh, DNAJB6 / RFU, CACNA2D3 / Fold change vs veh, CACNA2D3 / RFU, DTX4 / Fold change vs veh, DTX4 / RFU, TFCP2 / Fold change vs veh, TFCP2 / RFU, GMCL1 /// GMCL1P1 / Fold change vs veh, GMCL1 /// GMCL1P1 / RFU, AEBP2 / Fold change vs veh, AEBP2 / RFU, SNHG1 /// SNORD22 /// SNORD25 /// SNORD26 /// SNORD27 /// SNORD28 /// SNORD29 /// SNORD31 / Fold change vs veh, SNHG1 /// SNORD22 /// SNORD25 /// SNORD26 /// SNORD27 /// SNORD28 /// SNORD29 /// SNORD31 / Fold change (Aza/veh), C12orf56 (ProbeSet 11735607_a_at) / Fold change (ACY-1035/veh), C12orf56 (ProbeSet 11735607_a_at) / Fold change (Aza/veh), FGFR1OP (ProbeSet 11751329_s_at) / Fold change (ACY-1035/veh), FGFR1OP (ProbeSet 11751329_s_at) / Fold change (Aza/veh), VPS36 (ProbeSet 11739960_a_at) / Fold change (ACY-1035/veh), VPS36 (ProbeSet 11739960_a_at) / RFU SYPL1 (11715823_x_at) / Fold change /veh SYPL1 (11715823_x_at) / RFU IGFBP7 (11715501_s_at) / Fold change /veh IGFBP7 (11715501_s_at) / RFU REEP3 (11722064_at) / Fold change /veh REEP3 (11722064_at) / RFU IGLL1 (11728026_x_at) / Fold change /veh IGLL1 (11728026_x_at): dose or concentration left out as unconfirmed
Conditions: ProbeSet 11725885_a_at; LIST B

## Nc1ccc(-c2cccs2)cc1NC(=O)c1ccc2c(c1)cc(C1CC1)n2CCN1CCOCC1 [ACY-1035]
  Fold change vs veh, CNEP1R1: 1.08
